From patent US20150250167A1, “COMPOSITION FOR NOXIOUS ORGANISMS-CONTROLLING AGENT AND METHOD FOR USING THE SAME” (priority 2001, published 2015)

Experiments:
Aphid = assay: Control of aphid on cabbage by soil treatment, number of parasitic insects; format: in vivo; details: 5 mg ai/hill, 21 days after transplanting
Experimental: (§1) Test for the Control of Diamondback Moth (Plutella xyloxtella) and Aphid on Cabbage by Soil Treatment
A granular preparation was mixed into bed soil, and the mixture was filled into a cell seedling box and sown with seeds of cabbage (variety: YR Seitoku). Otherwise, cell seedling planted cabbage was treated with the granular agent either by a treatment in the foliage leaf extraction period, or by a pre-transplanting treatment, or by a pricking-in hole treatment, or by a plant foot treatment after the planting. […]

[1] = test system: Rice Leafroller (Cnaphalocrosis medinalis); assay: Control of rice leafroller on paddyfield rice by nursery box application, number of injured leaves; format: in vivo; details: 0.5 g ai/Box, single agent
Experimental: (§2) Test for the Control of Small Brown Planthopper (Laodelphax striatellus) and Rice Leafroller (Cnaphalocrosis medinalis) on Paddyfield Rice Plant by Nursery Box Application
(§3) Fifty grams of a granular preparation was applied to rice plant (variety: Nihombare) cultured in a nursery box, after which the rice plant was transplanted to the main paddy field (in the middle of May). The controlling effect against small brown planthopper was evaluated by investigating the number of parasitic insects on 30 hills per each plot, 40 days and 60 days after the transplantation. The controlling effect against rice leafroller was evaluated by investigating the number of injured leaves on 100 hills per each plot, 50 days after the transplantation.

[2] = test system: Resistant Strain of Two-Spotted Spider Mite; details: 100 ppm, single agent, 2 days after spraying
[3] = test system: Smaller Tea Tortrix (Adoxophyes orana fosciota); assay: Insecticidal test on smaller tea tortrix, tea leaf dipping; format: in vivo; details: single agent 0.3 ppm, 4th instar larvae, 25° C.
Experimental: Insecticidal Test on Smaller Tea Tortrix (Adoxophyes orana fosciota)
Tea leaves were dipped in a solution of a chemical diluted to a prescribed concentration for 30 seconds. […] Four days and seven days after the treatment, the number of alive insects were counted, from which percentage of death was calculated.

[4] = test system: Green Peach Aphid (Myzus persicae); assay: Insecticidal test on green peach aphid, spraying of Chinese cabbage, control value; format: in vivo; details: 100 ppm, single agent, 6 days after spraying
[5] = test system: Southern Root-Knot Nematode (Meloidogyne incognita); assay: Test for the effect on southern root-knot nematode, soil blending with granular preparation; format: in vivo; details: 300 g ai/10a, single agent, 60 days after treatment
Excerpt: Test for the Effect on Southern Root-Knot Nematode (Meloidogyne incognita)
Two killograms of a soil polluted with southern root-knot nematode was blended with a predetermined dose of a granular preparation. The mixture was filled into a 1/5,000 are Wagner pot. After sowing melon seeds and carrying out the treatment of the present invention, the pot was left to stand in a greenhouse. Sixty days after the treatment, 25 g of the soil was sampled out, the nematode was separated therefrom according to the method of Berman, and the numbers of nematodes were counted after 48 hours.
In the tables, “ai” means active ingredient.

[6] = test system: Diamondback Moth (Plutella xyloxtella); assay: Control of diamondback moth on cabbage by soil treatment, number of parasitic insects; format: in vivo; details: 5 mg ai/hill, 21 days after transplanting
Experimental: as §1
A granular preparation was mixed into bed soil, and the mixture was filled into a cell seedling box and sown with seeds of cabbage (variety: YR Seitoku). Otherwise, cell seedling planted cabbage was treated with the granular agent either by a treatment in the foliage leaf extraction period, or by a pre-transplanting treatment, or by a pricking-in hole treatment, or by a plant foot treatment after the planting. Twenty one days after the transplanting (in the middle of June), the number of parasitic insects was counted on 30 hills in the case of diamondback moth and on 10 hills in the case of aphid.

Rice Blast = details: in vivo
Cutworm = assay: Test for the effect against cutworm on beet, drench, number of injured hills per 100 hills; format: in vivo; details: 15 g ai/10a
Experimental: Test for the Effect Against Cutworm on Beet
Beet seedlings (variety: Monoace S) planted in a paper pot was treated with 3 L/m^2 of a solution of an agent diluted to a predetermined concentration, by the method of drench. Just after the drench, the plant was set. Predetermined days after the setting, the number of injured hills per 100 hills was counted.

[7] = test system: Rice Water Weevil (Lissorhoptrus oryzophilus); assay: Control of rice water weevil on paddyfield rice by nursery box application, extent of injury; format: in vivo; details: 0.5 g ai/Box, single agent
[8] = test system: Small Brown Planthopper (Laodelphax striatellus); assay: Control of small brown planthopper on paddyfield rice by nursery box application, number of parasitic insects; format: in vivo; details: 0.5 g ai/Box, single agent
Experimental: as §2, §3

[9] = test system: Brown Rice Planthopper (Nilaparvata lugens); assay: Insecticidal test on brown rice planthopper, rice seedling dipping; format: in vivo; details: 100 ppm, single agent; for Death rate (%) After 1 days: after 1 day
Excerpt: Insecticidal Test on Brown Rice Planthopper (Nilaparvata lugens)
Rice seedlings (variety: Nihombare) were dipped in a solution of an agent diluted to a predetermined concentration for 30 seconds. After air-dryness, each seedling was introduced into a glass-made test tube having a diameter of 1.8 cm and a height of 20 cm, and inoculated with ten 3rd inster nimphs of brown rice planthopper. Then, the test tube was stoppered with cotton. One day after and four days after the treatment, the number of alive insects was counted, based on which the insect death rate was calculated.

[10] = test system: Citrus Yellow Thrips (Frankliniella occidentalis); assay: Control of citrus yellow thrips on egg plant by combined use with natural enemy pesticide, number of thrips; format: in vivo; details: 100 ppm, spray
[11] = true leaf extraction season treatment

Row | SMILES | Number of parasitic insects per 30 hills, Aphid (Aphid; plant foot treatment) | Number of parasitic insects per 30 hills, Aphid (Aphid; pre-transplanting treatment) | Number of parasitic insects per 30 hills, Aphid (Aphid; pricking-in hole treatment) | Number of parasitic insects per 30 hills, Aphid (Aphid; soil incorporation) | Number of parasitic insects per 30 hills, Aphid (Aphid; [11]) | Percentage of injured leaves (%) After 50 days [1] [%] | Death rate (%) [2] [%] | Death rate (%) After 4 days [3] [%] | Death rate (%) After 7 days [3] [%] | Control degree (%) [4] [%] | Number of nematodes per 25 g of soil sample [5] | Number of parasitic insects per 30 hills, Diamondback moth ([6]; plant foot treatment) | Number of parasitic insects per 30 hills, Diamondback moth ([6]; pre-transplanting treatment) | Number of parasitic insects per 30 hills, Diamondback moth ([6]; pricking-in hole treatment) | Number of parasitic insects per 30 hills, Diamondback moth ([6]; soil incorporation) | Number of parasitic insects per 30 hills, Diamondback moth [6, 11] | Areal rate of disease spot (%) After 60 days (Rice Blast) [%] | Number of injured hills per 100 hills, After 60 days (Cutworm) | Number of injured hills per 100 hills, After 90 days (Cutworm) | Number of injured hills per 100 hills, After 120 days (Cutworm) | also measured
1 | Cc1cc(OC(F)(F)F)ccc1NC(=O)c1cccc(Cl)c1C(=O)NC(C)C [Compound 20] | 501 | 478 | 499 | 512 | 498 | 0.15 | 0 | 0 | 25 | 0 | 28 | 5 | 6 | 3 | 4 | 2 | 8.1 | 0 | 7 | 20 | Extent of injury After 21 days [7]: 37.4; Number of parasitic planthoppers per 30 hills After 40 days [8]: 315; Number of parasitic planthoppers per 30 hills After 60 days [8]: 354; Death rate (%) After 1 days [9]: 0%; Death rate (%) After 5 days [9]: 0%; Number of parasitic insects per 20 leaves, After 60 days [10]: 21; Number of parasitic insects per 20 leaves, After 90 days [10]: 28; Number of parasitic insects per 20 leaves, After 120 days [10]: 49
2 | CC(C)NC(=O)c1c(I)cccc1C(=O)Nc1ccc(C(F)(F)F)cc1Cl [Compound 39] | 456 | 457 | 437 | 513 | 487 | 0.25 | 0 | 0 | 20 | 0 | 34 | 2 | 4 | 3 | 3 | 2 | 8.2 | 0 | 6 | 17 | Extent of injury After 21 days [7]: 38.9; Number of parasitic planthoppers per 30 hills After 40 days [8]: 343; Number of parasitic planthoppers per 30 hills After 60 days [8]: 372; Death rate (%) After 1 days [9]: 0%; Death rate (%) After 5 days [9]: 0%; Number of parasitic insects per 20 leaves, After 60 days [10]: 19; Number of parasitic insects per 20 leaves, After 90 days [10]: 32; Number of parasitic insects per 20 leaves, After 120 days [10]: 58
3 | Cc1cc(C(F)(F)F)ccc1NC(=O)c1cccc(I)c1C(=O)NC(C)C [Compound 40] | 478 | 477 | 486 | 472 | 510 | 0.33 | 0 | 0 | 25 | 0 | 33 | 3 | 1 | 1 | 2 | 1 | 7.9 | 0 | 9 | 23 | Extent of injury After 21 days [7]: 39.0; Number of parasitic planthoppers per 30 hills After 40 days [8]: 322; Number of parasitic planthoppers per 30 hills After 60 days [8]: 358; Death rate (%) After 1 days [9]: 0%; Death rate (%) After 5 days [9]: 0%; Number of parasitic insects per 20 leaves, After 60 days [10]: 22; Number of parasitic insects per 20 leaves, After 90 days [10]: 31; Number of parasitic insects per 20 leaves, After 120 days [10]: 52
4 | Cc1cc(C(F)(F)C(F)(F)F)ccc1NC(=O)c1cccc(I)c1C(=O)NC(C)C [Compound 41] | 456 | 458 | 511 | 457 | 495 | 0.35 | 0 | 0 | 30 | 0 | 31 | 2 | 1 | 2 | 3 | 2 | 8.5 | 0 | 7 | 21 | Extent of injury After 21 days [7]: 43.2; Number of parasitic planthoppers per 30 hills After 40 days [8]: 333; Number of parasitic planthoppers per 30 hills After 60 days [8]: 385; Death rate (%) After 1 days [9]: 0%; Death rate (%) After 5 days [9]: 0%; Number of parasitic insects per 20 leaves, After 60 days [10]: 18; Number of parasitic insects per 20 leaves, After 90 days [10]: 29; Number of parasitic insects per 20 leaves, After 120 days [10]: 59
5 | Cc1cc(C(F)(F)C(F)(F)C(F)(F)F)ccc1NC(=O)c1cccc(I)c1C(=O)NC(C)C [Compound 42] | 498 | 435 | 473 | 475 | 485 | 0.22 | 0 | 0 | 30 | 0 | 28 | 3 | 3 | 1 | 3 | 2 | 8.3 | 0 | 8 | 22 | Extent of injury After 21 days [7]: 39.5; Number of parasitic planthoppers per 30 hills After 40 days [8]: 345; Number of parasitic planthoppers per 30 hills After 60 days [8]: 389; Death rate (%) After 1 days [9]: 0%; Death rate (%) After 5 days [9]: 0%; Number of parasitic insects per 20 leaves, After 60 days [10]: 19; Number of parasitic insects per 20 leaves, After 90 days [10]: 25; Number of parasitic insects per 20 leaves, After 120 days [10]: 50
